{"source": "the Deep4Chem optical property database", "experiment": "solvent given as SMILES", "note": "Where “and” joins values, the source holds several entries; their conditions need not be identical. Equal entries are not always repeated.", "data": [{"smiles": "Fc1nc(F)c(F)c(C#Cc2ccccc2C#Cc2c(F)c(F)nc(F)c2F)c1F", "values": [{"measurement": "fluorescence lifetime", "setting": "in CC#N", "result": 1.81, "unit": "ns"}]}, {"smiles": "Clc1cnc2nn3ccccc3c2n1", "values": [{"measurement": "fluorescence lifetime", "setting": "in C1CCOC1", "result": 6.2, "unit": "ns"}]}, {"smiles": "N#Cc1cc(-n2c3ccccc3c3ccccc32)c(C#N)cc1-n1c2ccccc2c2ccccc21", "values": [{"measurement": "fluorescence lifetime", "setting": "in c1ccc2c(c1)c1ccccc1n2P1(n2c3ccccc3c3ccccc32)=NP(n2c3ccccc3c3ccccc32)(n2c3ccccc3c3ccccc32)=NP(n2c3ccccc3c3ccccc32)(n2c3ccccc3c3ccccc32)=N1", "result": 34, "unit": "ns"}]}, {"smiles": "COC(=O)/C(C#N)=c1\\s/c(=c2/s/c(=C(/C#N)C(=O)OC)c3cc(-c4ccccc4)sc23)c2sc(-c3ccccc3)cc12", "values": [{"measurement": "fluorescence lifetime", "setting": "in Cc1ccccc1", "result": 2.82, "unit": "ns"}]}, {"smiles": "CN(C)c1ccc(/C=C/c2nc3c4ccccc4c4ccccc4c3o2)cc1", "values": [{"measurement": "fluorescence lifetime", "setting": "in CC#N", "result": 2.13, "unit": "ns"}]}, {"smiles": "CC(C)(C)n1c(=O)c2cc3ccc4cccc5ccc(c2c1=O)c3c45", "values": [{"measurement": "fluorescence lifetime", "setting": "in ClC(Cl)Cl", "result": 4.09, "unit": "ns"}]}, {"smiles": "COc1ccc(/C=C/c2ccccc2)cc1OC", "values": [{"measurement": "fluorescence lifetime", "setting": "in CC#N", "result": 0.5, "unit": "ns"}]}, {"smiles": "Cc1cc(-n2c3ccccc3c3ccccc32)c(-n2c3ccccc3c3ccccc32)cc1C#N", "values": [{"measurement": "fluorescence lifetime", "setting": "in c1cc(-c2cccc(-n3c4ccccc4c4ccccc43)c2)cc(-n2c3ccccc3c3ccccc32)c1", "result": 14.6, "unit": "ns"}, {"measurement": "fluorescence lifetime", "setting": "in c1ccc2c(c1)c1ccccc1n2-c1ccc2sc3ccc(-n4c5ccccc5c5ccccc54)cc3c2c1", "result": 26.4, "unit": "ns"}, {"measurement": "fluorescence lifetime", "setting": "in c1ccc2c(c1)c1ccccc1n2-c1ccc2sc3ccc(-n4c5ccccc5c5cccnc54)cc3c2c1", "result": 15.8, "unit": "ns"}, {"measurement": "fluorescence lifetime", "setting": "in c1ccc2c(c1)c1cccnc1n2-c1ccc2sc3ccc(-n4c5ccccc5c5cccnc54)cc3c2c1", "result": 19.5, "unit": "ns"}]}, {"smiles": "CCC(CC)COC1=CC2=C3c4cc(OCC(CC)CC)c(-c5ccccc5)n4[B-](F)(F)[n+]4nnn(c43)[B-](F)(F)[N+]2=C1c1ccccc1", "values": [{"measurement": "fluorescence lifetime", "setting": "in C1CCOC1", "result": 1.01, "unit": "ns"}, {"measurement": "fluorescence lifetime", "setting": "in ClCCl", "result": 0.95, "unit": "ns"}]}, {"smiles": "c1ccc(-c2nc(-c3ccc(-c4ccc(-c5nc(-c6ccccc6)c(-c6ccccc6)o5)cc4)cc3)oc2-c2ccccc2)cc1", "values": [{"measurement": "fluorescence lifetime", "setting": "in C1COCCO1", "result": 0.95, "unit": "ns"}]}, {"smiles": "c1ccc2c(-c3cc(-c4nccs4)nc(-c4nccs4)c3)cccc2c1", "values": [{"measurement": "fluorescence lifetime", "setting": "in CC#N", "result": 1.96, "unit": "ns"}, {"measurement": "fluorescence lifetime", "setting": "in CCCCCC", "result": 2.24, "unit": "ns"}, {"measurement": "fluorescence lifetime", "setting": "in CO", "result": 1.86, "unit": "ns"}, {"measurement": "fluorescence lifetime", "setting": "in ClC(Cl)Cl", "result": 2.19, "unit": "ns"}]}, {"smiles": "N#Cc1nc2c3ccc(-n4c5ccccc5c5ccccc54)cc3c3cc(-n4c5ccccc5c5ccccc54)ccc3c2nc1C#N", "values": [{"measurement": "fluorescence lifetime", "setting": "in O=P(c1ccccc1)(c1ccccc1)c1cccc(-c2cc(-n3c4ccccc4c4ccccc43)cc(-n3c4ccccc4c4ccccc43)c2)n1", "result": 29.5, "unit": "ns"}]}, {"smiles": "Cn1ccc(=O)n(C)c1=O", "values": [{"measurement": "fluorescence lifetime", "setting": "in CC#N", "result": 0.0001, "unit": "ns"}]}, {"smiles": "Clc1nc(Cl)nc(Nc2cc3ccc4cccc5ccc(c2)c3c45)n1", "values": [{"measurement": "fluorescence lifetime", "setting": "in CCCCCCC", "result": 122, "unit": "ns"}]}, {"smiles": "CC(C)(C)c1ccc(-c2nc3c4ccc(-c5cccc6ccccc56)cc4c4cc(-c5cccc6ccccc56)ccc4c3n2-c2ccc(C(C)(C)C)cc2)cc1", "values": [{"measurement": "fluorescence lifetime", "setting": "in ClCCl", "result": 7.4, "unit": "ns"}]}, {"smiles": "O=[N+]([O-])c1ccc(/C=C/c2nc3c4ccccc4c4ccccc4c3o2)cc1", "values": [{"measurement": "fluorescence lifetime", "setting": "in CC#N", "result": 3.01, "unit": "ns"}]}, {"smiles": "Cc1ccc2nc3[nH]c(=O)[nH]c(=O)c3nc2c1", "values": [{"measurement": "fluorescence lifetime", "setting": "in CC#N", "result": 0.6, "unit": "ns"}, {"measurement": "fluorescence lifetime", "setting": "in ClCCCl", "result": 0.49, "unit": "ns"}]}, {"smiles": "C(=C\\c1cc(-c2ccccc2)c(/C=C/c2ccc(N(c3ccccc3)c3ccccc3)cc2)cc1-c1ccccc1)/c1ccc(N(c2ccccc2)c2ccccc2)cc1", "values": [{"measurement": "fluorescence lifetime", "setting": "in ClCCl", "result": 1.29, "unit": "ns"}]}, {"smiles": "OB(O)c1ccc(-c2ccc(N(c3ccccc3)c3ccccc3)cc2)cc1", "values": [{"measurement": "fluorescence lifetime", "setting": "in C1CCCCC1", "result": 1.59, "unit": "ns"}, {"measurement": "fluorescence lifetime", "setting": "in C1CCOC1", "result": 2.14, "unit": "ns"}, {"measurement": "fluorescence lifetime", "setting": "in CC#N", "result": 2.24, "unit": "ns"}, {"measurement": "fluorescence lifetime", "setting": "in CCO", "result": 2.39, "unit": "ns"}, {"measurement": "fluorescence lifetime", "setting": "in CCOC(C)=O", "result": 2.21, "unit": "ns"}, {"measurement": "fluorescence lifetime", "setting": "in CCOCC", "result": 1.69, "unit": "ns"}, {"measurement": "fluorescence lifetime", "setting": "in CO", "result": 2.97, "unit": "ns"}]}, {"smiles": "O=C1c2ccc3c4ccc5c6c(ccc(c7ccc(c2c37)C(=O)N1c1ccc(O)cc1)c64)C(=O)N(c1ccc(O)cc1)C5=O", "values": [{"measurement": "fluorescence lifetime", "setting": "in C1CCOC1", "result": 1.6, "unit": "ns"}, {"measurement": "fluorescence lifetime", "setting": "in CN1CCCC1=O", "result": 0.2, "unit": "ns"}, {"measurement": "fluorescence lifetime", "setting": "in CN(C)C=O", "result": "2.2 ns and 3.9 ns"}]}, {"smiles": "C(=C\\c1c2ccccc2cc2ccccc12)/c1cccc2ccccc12", "values": [{"measurement": "fluorescence lifetime", "setting": "in CC1CCCCC1", "result": 5, "unit": "ns"}, {"measurement": "fluorescence lifetime", "setting": "in CC#N", "result": 4.5, "unit": "ns"}]}, {"smiles": "CN(C)c1ccc2c(-c3cc(C(=O)[O-])ccc3C(=O)[O-])c3ccc(=[N+](C)C)cc-3oc2c1", "values": [{"measurement": "fluorescence lifetime", "setting": "in CCO", "result": 3.3, "unit": "ns"}, {"measurement": "fluorescence lifetime", "setting": "in O", "result": 2.36, "unit": "ns"}]}, {"smiles": "F[B-]1(F)n2c(-c3ccccc3)cc(-c3ccccc3)c2N=C2C(c3ccccc3)=CC(c3ccccc3)=[N+]21", "values": [{"measurement": "fluorescence lifetime", "setting": "in CC#N", "result": 0.78, "unit": "ns"}]}, {"smiles": "CN1/C(=C/C=C/C2=[N+](CCCCCC(=O)O)c3ccc(S(=O)(=O)[O-])cc3C2(C)C)C(C)(C)c2cc(S(=O)(=O)[O-])ccc21", "values": [{"measurement": "fluorescence lifetime", "setting": "in O", "result": 0.3, "unit": "ns"}]}, {"smiles": "[BH3-][P+]1(c2ccccc2)c2ccccc2-c2sc3ccccc3c21", "note": "(centres undefined)", "values": [{"measurement": "fluorescence lifetime", "setting": "in ClCCl", "result": 3, "unit": "ns"}]}, {"smiles": "c1ccc([B-]2(c3ccccc3)Oc3ccc4ccccc4c3-c3c4ccccc4nc[n+]32)cc1", "values": [{"measurement": "fluorescence lifetime", "setting": "in Cc1ccccc1", "result": 9.59, "unit": "ns"}]}, {"smiles": "CCCCCCCCOc1cc(/C=C/c2cc(OCCCCCCCC)c(/C=C/c3cc(OCCCCCCCC)c(/C=C/c4ccncc4)cc3OCCCCCCCC)cc2OCCCCCCCC)c(OCCCCCCCC)cc1/C=C/c1ccncc1", "values": [{"measurement": "fluorescence lifetime", "setting": "in ClCCl", "result": 1.27, "unit": "ns"}]}, {"smiles": "CCCCCCCC[Si](C)(C)c1cccc2ccccc12", "values": [{"measurement": "fluorescence lifetime", "setting": "in C1CCCCC1", "result": 62, "unit": "ns"}]}, {"smiles": "Cc1oc2c(Cl)cc3c(C)cc(=O)oc3c2c1C", "values": [{"measurement": "fluorescence lifetime", "setting": "in C1COCCO1", "result": 0.08, "unit": "ns"}, {"measurement": "fluorescence lifetime", "setting": "in CC#N", "result": 0.15, "unit": "ns"}, {"measurement": "fluorescence lifetime", "setting": "in CCO", "result": 0.79, "unit": "ns"}, {"measurement": "fluorescence lifetime", "setting": "in OCC(F)(F)F", "result": 2.4, "unit": "ns"}]}, {"smiles": "c1ccc(/C(=C(\\c2ccccc2)c2cc(-c3ccccc3)ccc2-c2ccc(-c3ccccc3)cc2)c2cc(-c3ccccc3)ccc2-c2ccc(-c3ccccc3)cc2)cc1", "values": [{"measurement": "fluorescence lifetime", "setting": "in C1CCOC1", "result": 7.9, "unit": "ns"}]}, {"smiles": "Nc1cccc2c1C(=O)c1ccccc1-2", "values": [{"measurement": "fluorescence lifetime", "setting": "in C1CCCCC1", "result": 0.8, "unit": "ns"}, {"measurement": "fluorescence lifetime", "setting": "in CC#N", "result": 2.3, "unit": "ns"}, {"measurement": "fluorescence lifetime", "setting": "in c1ccccc1", "result": 1.4, "unit": "ns"}]}]}
